Assay results reported in patent US20230150951A1, “2,5- OR 2,6-DISUBSTITUTED HYDROQUINONE DERIVATIVES WITH AT LEAST ONE CARBOXY, SULFO OR AMIDO GROUP USEFUL AS MEDICAMENTS” (OM PHARMA SA, priority 2020, published 2023).

What was measured:
Format in all cases: cell-based
VEGF-A = target: T1, VEGF-A (Homo sapiens, UniProt P15692); test: VEGF-A induced sprouting of HUVEC, spheroid-based cellular angiogenesis assay; details: VEGF-A 25 ng/mL preincubated with compound, 24 h, read-out: VEGF-A1 IC50
T1 construct: purchased ProQinase GmbH
T1 sequence (P15692 27-191 isoform P15692-4): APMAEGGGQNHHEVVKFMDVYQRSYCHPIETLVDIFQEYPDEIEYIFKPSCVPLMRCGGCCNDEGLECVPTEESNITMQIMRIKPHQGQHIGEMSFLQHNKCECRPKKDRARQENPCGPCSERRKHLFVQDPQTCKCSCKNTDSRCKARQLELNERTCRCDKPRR
Experimental: (§1) Aim of this in vitro method is to assess compounds effects on FGF-2, FGF-1, or VEGF-A induced sprouting of human umbilical vein endothelial cells (HUVEC) in the spheroid-based cellular angiogenesis assay. Before adding the growth factors to the cells, they were preincubated with the compound. Sunitinib was tested as a control (without preincubation).
(§2) IC50 values determined for the tested compounds are expressed in microM [μM] and the values for the inhibition of FGF-1, FGF2 and VEGF-A induced growth (sprouting) are listed after each compound in the examples after chemical characterization.
(§3) Sprouting test was performed on the compounds dissolved in DMSO to reach 100-fold concentrated stock solutions and dissolved in culture media. Sunitinib as reference compound was provided by ProQinase GmbH. Growth factors were purchased from rhFGF-basic (FGF-2), Peprotech, New Jersey, USA, #100-18C, Lot #0415571; rhFGF-acidic (FGF-1), Peprotech, New Jersey, USA, #100-17A, Lot #031207; hVEGF-A165 (ProQinase GmbH, Freiburg, Germany; 05.02.2010) were used for stimulation of HUVEC cells growth.
(§4) Test system: Endothelial cells from human umbilical vein (HUVEC) from pooled donors were stored frozen with 70% medium, 20% FCS, 10% DMSO at about 1×10^6 cells/ampoule. HUVEC cells, primary human umbilical vein endothelial cells (PromoCell, Heidelberg, Germany), were used after passage 3 to 4. Morphology of the cells are adherent, cobblestone-like growing as monolayer and were cultured in endothelial cell growth and basal medium (ECGM/ECBM, PromoCell). The subculture was split 1:3; every 3-5 days, seed out at ca. 1×10^4 cells/cm^2 and incubated at 37° C. with 5% CO2 with a doubling time 24-48 hours
(§5) Dilution of test compounds: 100× concentrated solutions (concerning to the final assay concentrations) of each test compound were prepared with the appropriate solvent (in DMSO or in water). These 100×compound solutions were further diluted in endothelial cell growth and basal medium (ECBM) 1:7.5 to get a 13.33× concentrated solution. 75 μl of the 13.33×solution was subsequently mixed with 25 μl of 40× concentrated stimulus (solved in ECBM), resulting in a 10×concentrated stimulus/compound mixture. This mixture (100 μl) was incubated for 30 min at 37° C. and then added to 900 μl gel, containing the HUVEC spheroids (resulting in the final assay concentration).
(§6) Test method: the experiments were pursued in modification of the originally published protocol (Korff and Augustin: J Cell Sci 112: 3249-58, 1999). In brief, spheroids were prepared as described (Korff and Augustin: J Cell Biol 143: 1341-52, 1998) by pipetting 400 HUVEC in a hanging drop on plastic dishes to allow overnight spheroid aggregation. 50 HUVEC spheroids were then seeded in 0.9 ml of a collagen gel and pipetted into individual wells of a 24 well plate to allow polymerization. The test compounds were preincubated with the growth factors (FGF-1, FGF-2 or VEGF-A final concentration 25 ng/mL) in a 10-fold concentrated solution and subsequently, 100 μl of this solution was added on top of the polymerized gel. All compounds were diluted in solvent (DMSO or water) as 100×stocks first (which means 100×stocks of each final assay concentration were prepared in solvent). Subsequently, these stocks were further diluted in medium (resulting in the 13.33×stocks of each final assay concentration) with final concentrations tested: 100, 50, 25, 12.5, 6.25, 3.13 and 1.56×10^−6 M). Plates were incubated at 37° C. for 24 hours and fixed by adding 4% PFA (Roth, Karlsruhe, Germany).
(§7) Quantification of growth factor inhibition: sprouting intensity of HUVEC spheroids treated with the growth factor and the inhibitors were quantitated by an image analysis system determining the cumulative sprout length per spheroid (CSL).

VEGFR-2 = target: T2, VEGFR-2 (Homo sapiens, UniProt P35968); test: VEGF-165 induced phosphorylation of VEGF-Receptor on HUVEC; details: HUVEC preincubated 60 min, VEGF165 25 ng/mL 2 min; read-out: VEGFR-Phosphorylation inhibition IC50
T2 construct: endogenous in cells; host or cells: primary HUVEC
T2 sequence (P35968 20-1356): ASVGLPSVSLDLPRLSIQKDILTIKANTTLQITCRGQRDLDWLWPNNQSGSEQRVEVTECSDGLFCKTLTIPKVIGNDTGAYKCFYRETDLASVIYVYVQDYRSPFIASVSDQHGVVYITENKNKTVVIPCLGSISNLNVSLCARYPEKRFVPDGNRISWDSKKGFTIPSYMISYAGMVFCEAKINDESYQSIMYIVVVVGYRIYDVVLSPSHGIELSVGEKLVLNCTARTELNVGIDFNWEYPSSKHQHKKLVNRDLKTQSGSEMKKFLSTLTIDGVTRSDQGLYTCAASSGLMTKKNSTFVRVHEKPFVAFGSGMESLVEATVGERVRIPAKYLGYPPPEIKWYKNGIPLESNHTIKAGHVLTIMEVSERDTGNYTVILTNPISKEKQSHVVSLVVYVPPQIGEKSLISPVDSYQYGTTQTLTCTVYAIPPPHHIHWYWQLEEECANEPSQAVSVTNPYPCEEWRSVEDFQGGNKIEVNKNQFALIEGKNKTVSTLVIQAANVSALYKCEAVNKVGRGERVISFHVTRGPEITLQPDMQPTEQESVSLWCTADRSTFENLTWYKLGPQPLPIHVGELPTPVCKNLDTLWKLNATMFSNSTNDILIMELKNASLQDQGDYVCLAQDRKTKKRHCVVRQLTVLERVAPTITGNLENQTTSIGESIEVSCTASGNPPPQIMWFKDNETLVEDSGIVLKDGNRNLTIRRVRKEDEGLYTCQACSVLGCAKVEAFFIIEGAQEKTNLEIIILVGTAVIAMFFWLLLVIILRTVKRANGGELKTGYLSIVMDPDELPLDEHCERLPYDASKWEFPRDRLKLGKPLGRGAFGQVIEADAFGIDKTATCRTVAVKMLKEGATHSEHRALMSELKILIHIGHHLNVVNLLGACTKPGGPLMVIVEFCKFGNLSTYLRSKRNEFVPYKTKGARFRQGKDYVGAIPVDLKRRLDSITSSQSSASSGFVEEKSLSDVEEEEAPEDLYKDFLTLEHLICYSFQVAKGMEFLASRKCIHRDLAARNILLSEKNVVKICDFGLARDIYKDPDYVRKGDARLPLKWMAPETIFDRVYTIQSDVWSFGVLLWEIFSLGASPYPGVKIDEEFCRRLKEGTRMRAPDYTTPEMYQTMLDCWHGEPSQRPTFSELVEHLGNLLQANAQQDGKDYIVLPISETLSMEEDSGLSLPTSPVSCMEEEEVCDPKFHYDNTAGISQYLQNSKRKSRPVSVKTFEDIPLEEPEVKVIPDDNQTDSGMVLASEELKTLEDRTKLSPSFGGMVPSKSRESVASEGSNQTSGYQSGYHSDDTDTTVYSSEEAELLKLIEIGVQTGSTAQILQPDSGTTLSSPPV
Experimental: Cell culture: Primary human umbilical vein endothelial cells (HUVECs) were routinely cultured in 0.1% gelatin pre-coated flasks or dishes, up to passage 6. […]
Rabbit primary antibodies for VEGFR-2, p-Tyr1175 were acquired from Cell Signaling Technology (Leiden, The Netherlands). Phospho-VEGFR-2 (Tyr1175) Sandwich ELISA Kit was from Cell Signaling Technology.
[…] Western blot analysis was performed using anti-phospho-VEGFR-2 antibody and total VEGFR-2 was used as a loading control after membrane stripping.
Inhibition of VEGFR-2-phosphorylation results are expressed as IC50 in microM [μM] versus VEGF-treated HUVECs control without inhibitory compound.

Human neutrophils [1] = test: Inhibition of ROS production in human neutrophils (isoluminol chemiluminescence); details: fMLP+TNF-α stimulated PMN; for inhibition at 0.3 µM / IC50: Homo sapiens, Neutrophil
Description: NADPH oxidase, located in the plasma membrane and in the membranes of specific granules, produces superoxide anions from which other ROS, such as hydrogen peroxide, singlet oxygen, hypochlorite, and active hydroxyl radicals. ROS are released into the surrounding medium or into a membrane-enclosed subcellular organelle. One quick and sensitive method for measuring the generation of these metabolites is chemiluminescence (CL). Isoluminol amplified CL technique, is very sensitive and widely used to study respiratory burst (mainly extracellular production of ROS) induced in neutrophils.
Human neutrophils were isolated from buffy coats which obtained from healthy donors. The isolated neutrophils (3×10^6/ml) were suspended in Hanks' Balanced Salt Solution (HBSS) with Calcium and Magnesium. Neutrophils were pre-incubated with the compounds at different concentrations (0.1, 0.3, 1, 3 and 10 μM) for 30 min at 37° C. The black 96-well cell culture plates were coated with human fibrinogen (0.25 mg/ml in PBS), and incubated overnight at 4° C. or 2 hr at 37° C. Then the plates were washed with endotoxin-free PBS. The neutrophils were incubated (priming) with TNF-α (20 ng/ml) for 10 minutes at 37° C. Thereupon the 75 μl of cell suspension and 75 μl (Isoluminol+HRP solution) were added to each well. The chemiluminescence was recorded (every 25 sec for 250 sec) after fMLP (1 μM) activation using a Multilabel Reader victor3 (Perkin Elmer, USA). Background values, defined as the mean chemiluminescent values of isoluminol diluted in HBSS, were subtracted from all readings (CPS, count per second). The assays were done in duplicate or triplicate.

Human neutrophils [2] = test: Neutrophil adhesion under static conditions; details: fMLP-stimulated adhesion to fibrinogen; method: 40 μM and 80 μM, concentration of the value not stated
Experimental: Human neutrophils obtained from buffy coats of healthy donors were suspended at 3×10^6/ml in adhesion buffer (PBS containing 1 mM CaCl2)/MgCl2 and 10% FCS, pH 7.2). Neutrophils were preincubated for 30 min at 37° C. with 40 μM and 80 μM of the compounds.
Adhesion assays were performed on 18-well glass slides coated for 18 h at 4° C. with human fibrinogen (20 μg/well in endotoxin-free PBS); 20 μl of cell suspension were added to each well and stimulated for 1 min at 37° C. with 5 μl of fMLP 1 nM final concentration. After washing, adherent cells were fixed in glutaraldehyde 1.5% in PBS and counted by computer-assisted enumeration. Statistical analysis was performed by calculating mean and standard deviation (SD); significance was calculated by unpaired t-test. All statistical analyses were performed using GraphPad Prism 6 (GraphPad Software).

FGF-2 = target: T3, FGF-2 (Homo sapiens, UniProt P09038); test: FGF-2 induced sprouting of HUVEC, spheroid-based cellular angiogenesis assay; details: FGF-2 25 ng/mL preincubated with compound, 24 h
T3 construct: purchased Peprotech 100-18C
T3 sequence (P09038 134-288): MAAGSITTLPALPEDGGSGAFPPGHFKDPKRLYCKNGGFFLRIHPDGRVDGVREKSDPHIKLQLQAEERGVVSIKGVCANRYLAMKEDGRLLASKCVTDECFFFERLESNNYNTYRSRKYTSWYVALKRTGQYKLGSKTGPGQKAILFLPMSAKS
Experimental: as §1, §2, §3, §4, §5, §6, §7

FGF-1 = target: T4, FGF-1 (Homo sapiens, UniProt P05230); test: FGF-1 induced sprouting of HUVEC, spheroid-based cellular angiogenesis assay; details: FGF-1 25 ng/mL preincubated with compound, 24 h
T4 construct: purchased Peprotech 100-17A
T4 sequence (P05230 whole entry): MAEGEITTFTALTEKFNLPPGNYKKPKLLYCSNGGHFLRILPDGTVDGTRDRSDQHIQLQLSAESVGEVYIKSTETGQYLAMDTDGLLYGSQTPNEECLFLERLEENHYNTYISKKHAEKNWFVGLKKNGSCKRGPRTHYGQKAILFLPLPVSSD
Experimental: as §1, §2, §3, §4, §5, §6, §7

SMILES | IC50 (VEGF-A) [µM] | IC50 (VEGFR-2) [µM] | inhibition at 0.3 µM (Human neutrophils [1]; 0.3 μM) [%] | Neutrophil adhesion inhibition (Human neutrophils [2]) [%] | IC50 (FGF-2) [µM] | IC50 (Human neutrophils [1]) [µM] | PMN ROS inhibition at 0.3 μM (Human neutrophils [1]; 0.3 μM) [%] | IC50 (FGF-1) [µM]
CCOC(=O)c1cc(O)c(C(=O)Nc2cnccc2C(=O)OCC)cc1O [Ia-023a-E2, ethyl 3-(4-(ethoxycarbonyl)-2,5-dihydroxybenzamido)isonicotinate] | 141 | 6.6 | 69.5 | 34 | 76 | – | – | –
CCOC(=O)Cc1cc(O)c(C(=O)Nc2cc(C(=O)OCC)cc(C(=O)OCC)c2)cc1O [IIIa-015a-E3, diethyl 5-(4-(ethoxycarbonylmethyl)-2,5-dihydroxybenzamido)isophthalate] | 87 | 7.2 | 91.4 | 61.22 | 191 | – | – | –
O=C(O)c1cc(O)cc(C(=O)Nc2ccccc2-c2nnn[nH]2)c1O [IIa-001a-Tz, 3-(2-(1H-tetrazol-5-yl)phenylaminocarbonyl)-2,5-dihydroxybenzoic acid] | 187 | – | 74.2 | 24.18 | 9.8 | – | – | –
O=C(O)c1cc(O)c(COCc2cc(O)c(C(=O)O)cc2O)cc1O [IIIc-060a, 4-((2,5-Dihydroxy-4-carboxyphenyl)methoxymethyl)-2,5-dihydroxybenzoic acid] | 114 | 1.3 | 86.8 | 41.38 | 51 | – | – | –
O=C(O)c1ccc(C(=O)O)c(NC(=O)c2cc(O)cc(C(=O)O)c2O)c1 [IIa-012a, 2-(3-carboxy-2,5-dihydroxybenzamido)terephthalic acid] | 32 | 3.31 | 44.8 | 7.5 | – | 0.313 | – | –
O=C(O)c1cc(O)c(C(=O)NC(C(=O)O)c2ccc(O)c(O)c2)cc1O (centres unmarked) [Ia-036a, 4-(Carboxy(3,4-dihydroxyphenyl)methylaminocarbonyl)-2,5-dihydroxybenzoic acid] | 123 | 1.6 | – | 30.77 | 37 | – | 87.17 | –
O=C(O)c1cc(O)c(C(=O)Nc2cnccc2C(=O)O)cc1O [Ia-023a, 3-(4-carboxy-2,5-dihydroxybenzamido)isonicotinic acid] | 143 | ≥ 100 | 62 | 13.37 | 63 | – | – | –
O=C(O)c1cc(O)ccc1NC(=O)c1cc(O)cc(C(=O)O)c1O [IIa-006a, 3-(2-carboxy-4-hydroxyphenylaminocarbonyl)-2,5-dihydroxybenzoic acid] | 121 | 2.9 | 84.3 | 20.29 | 43 | – | – | –
CCOC(=O)c1cc(O)c(C(=O)Nc2ccc(O)c(C(=O)OC)c2)cc1O [Ia-004a-E2, ethyl 2,5-dihydroxy-4-(4-hydroxy-3-(methoxycarbonyl)phenylaminocarbonyl)benzoate] | – | 6.1 | 85.3 | 97.65 | 36 | – | – | 35
O=C(O)c1cc(NC(=O)c2cc(O)cc(C(=O)O)c2O)ccc1O [IIa-004a, 3-(3-carboxy-4-hydroxyphenylaminocarbonyl)-2,5-dihydroxybenzoic acid] | – | ≥ 100 | 63.5 | 36 | 33 | 1 | – | 47
O=C(O)c1cc(O)c(C(=O)NCc2ccc(O)c(O)c2)cc1O [Ia-035a, 4-(3,4-Dihydroxyphenylmethylaminocarbonyl)-2,5-dihydroxybenzoic acid] | – | 36 | 75.1 | 27 | 71 | 0.41 | – | 20
